Assay results from PubChem BioAssay AID1963853 (Molecular Pharmacology Branch, DTP, NCI, 2024).

System: 266295-075-R-J1-PDC spheroid viability
Assay: Anticancer human tumor 266295-075-R-J1-PDC patient-derived head and neck squamous carcinoma cell line growth inhibition [POLQ]
Settings: spheroids with HUVEC and MSC; for IC50: curve of first compound; for viability, T/C: stronger effect = lower value
In short: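 Growth inhibition in 3D: complex spheroids (tumor PDC, HUVEC, MSC) treated with POLQ inhibitor combinations; where Cmax unknown, highest tested concentration 10 microM, except SN-38 at 1 microM.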
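Note: spheroids exposed to compounds for seven days before readout.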

Compound: CC(=O)O[C@H]1C(=O)[C@@]2(C)[C@H]([C@H](OC(=O)c3ccccc3)[C@]3(O)C[C@H](OC(=O)[C@H](O)[C@@H](NC(=O)c4ccccc4)c4ccccc4)C(C)=C1C3(C)C)[C@]1(OC(C)=O)CO[C@@H]1C[C@@H]2O + Cc1cccc(N(C)C(=O)C2C(O)CCN2c2nc(C)cc(C(F)(F)F)c2C#N)c1
- IC50 (second compound 0.0316 µM): > 3 µM
- IC50 (second compound 0.1 µM): > 3 µM
- IC50 (second compound 0.316 µM): > 3 µM
- IC50 (second compound 1 µM): > 3 µM
- IC50 (second compound 3.16 µM): > 3 µM
- IC50 (second compound 10 µM): > 3 µM
- viability, T/C (second compound 0.0316 µM, first compound 0.00949 µM): 71.9%
- viability, T/C (second compound 0.0316 µM, first compound 0.03 µM): 58.7%
- viability, T/C (second compound 0.0316 µM, first compound 0.0949 µM): 62.5%
- viability, T/C (second compound 0.0316 µM, first compound 0.3 µM): 80.5%
- viability, T/C (second compound 0.0316 µM, first compound 0.949 µM): 78.7%
- viability, T/C (second compound 0.0316 µM, first compound 3 µM): 60%
- viability, T/C (second compound 0.1 µM, first compound 0.00949 µM): 71.7%
- viability, T/C (second compound 0.1 µM, first compound 0.03 µM): 71%
- viability, T/C (second compound 0.1 µM, first compound 0.0949 µM): 56.9%
- viability, T/C (second compound 0.1 µM, first compound 0.3 µM): 74.7%
- viability, T/C (second compound 0.1 µM, first compound 0.949 µM): 83.8%
- viability, T/C (second compound 0.1 µM, first compound 3 µM): 51.8%
- viability, T/C (second compound 0.316 µM, first compound 0.00949 µM): 100%
- viability, T/C (second compound 0.316 µM, first compound 0.03 µM): 65.9%
- viability, T/C (second compound 0.316 µM, first compound 0.0949 µM): 64%
- viability, T/C (second compound 0.316 µM, first compound 0.3 µM): 69.2%
- viability, T/C (second compound 0.316 µM, first compound 0.949 µM): 71%
- viability, T/C (second compound 0.316 µM, first compound 3 µM): 55.4%
- viability, T/C (second compound 1 µM, first compound 0.00949 µM): 70.8%
- viability, T/C (second compound 1 µM, first compound 0.03 µM): 56.4%
- viability, T/C (second compound 1 µM, first compound 0.0949 µM): 79.4%
- viability, T/C (second compound 1 µM, first compound 0.3 µM): 68%
- viability, T/C (second compound 1 µM, first compound 0.949 µM): 78.2%
- viability, T/C (second compound 1 µM, first compound 3 µM): 62.7%
- viability, T/C (second compound 3.16 µM, first compound 0.00949 µM): 93%
- viability, T/C (second compound 3.16 µM, first compound 0.03 µM): 60.2%
- viability, T/C (second compound 3.16 µM, first compound 0.0949 µM): 73.1%
- viability, T/C (second compound 3.16 µM, first compound 0.3 µM): 69.1%
- viability, T/C (second compound 3.16 µM, first compound 0.949 µM): 81.5%
- viability, T/C (second compound 3.16 µM, first compound 3 µM): 61.9%
- viability, T/C (second compound 10 µM, first compound 0.00949 µM): 83.8%
- viability, T/C (second compound 10 µM, first compound 0.03 µM): 52.4%
- viability, T/C (second compound 10 µM, first compound 0.0949 µM): 60.9%
- viability, T/C (second compound 10 µM, first compound 0.3 µM): 68.1%
- viability, T/C (second compound 10 µM, first compound 0.949 µM): 72.4%
- viability, T/C (second compound 10 µM, first compound 3 µM): 62.8%

Compound: COc1cc(C2c3cc4c(cc3C(OC3OC5COC(C)OC5C(O)C3O)C3COC(=O)C23)OCO4)cc(OC)c1O (centres undefined) + Cc1cccc(N(C)C(=O)C2C(O)CCN2c2nc(C)cc(C(F)(F)F)c2C#N)c1
- IC50 (second compound 0.0316 µM): > 10 µM
- IC50 (second compound 0.1 µM): > 10 µM
- IC50 (second compound 0.316 µM): > 10 µM
- IC50 (second compound 1 µM): > 10 µM
- IC50 (second compound 3.16 µM): > 10 µM
- IC50 (second compound 10 µM): > 10 µM
- viability, T/C (second compound 0.0316 µM, first compound 0.0316 µM): 83.3%
- viability, T/C (second compound 0.0316 µM, first compound 0.1 µM): 75.2%
- viability, T/C (second compound 0.0316 µM, first compound 0.316 µM): 82.2%
- viability, T/C (second compound 0.0316 µM, first compound 1 µM): 75.8%
- viability, T/C (second compound 0.0316 µM, first compound 3.16 µM): 75.3%
- viability, T/C (second compound 0.0316 µM, first compound 10 µM): 64.9%
- viability, T/C (second compound 0.1 µM, first compound 0.0316 µM): 78.8%
- viability, T/C (second compound 0.1 µM, first compound 0.1 µM): 82.2%
- viability, T/C (second compound 0.1 µM, first compound 0.316 µM): 72.5%
- viability, T/C (second compound 0.1 µM, first compound 1 µM): 69.4%
- viability, T/C (second compound 0.1 µM, first compound 3.16 µM): 70.7%
- viability, T/C (second compound 0.1 µM, first compound 10 µM): 70.2%
- viability, T/C (second compound 0.316 µM, first compound 0.0316 µM): 96.5%
- viability, T/C (second compound 0.316 µM, first compound 0.1 µM): 73.1%
- viability, T/C (second compound 0.316 µM, first compound 0.316 µM): 73.9%
- viability, T/C (second compound 0.316 µM, first compound 1 µM): 76.3%
- viability, T/C (second compound 0.316 µM, first compound 3.16 µM): 73.1%
- viability, T/C (second compound 0.316 µM, first compound 10 µM): 57.9%
- viability, T/C (second compound 1 µM, first compound 0.0316 µM): 86.1%
- viability, T/C (second compound 1 µM, first compound 0.1 µM): 95.4%
- viability, T/C (second compound 1 µM, first compound 0.316 µM): 82%
- viability, T/C (second compound 1 µM, first compound 1 µM): 86.2%
- viability, T/C (second compound 1 µM, first compound 3.16 µM): 73.4%
- viability, T/C (second compound 1 µM, first compound 10 µM): 68.1%
- viability, T/C (second compound 3.16 µM, first compound 0.0316 µM): 85.8%
- viability, T/C (second compound 3.16 µM, first compound 0.1 µM): 76.2%
- viability, T/C (second compound 3.16 µM, first compound 0.316 µM): 77.5%
- viability, T/C (second compound 3.16 µM, first compound 1 µM): 68.5%
- viability, T/C (second compound 3.16 µM, first compound 3.16 µM): 68.1%
- viability, T/C (second compound 3.16 µM, first compound 10 µM): 62.8%
- viability, T/C (second compound 10 µM, first compound 0.0316 µM): 101%
- viability, T/C (second compound 10 µM, first compound 0.1 µM): 72.5%
- viability, T/C (second compound 10 µM, first compound 0.316 µM): 69.2%
- viability, T/C (second compound 10 µM, first compound 1 µM): 72.2%
- viability, T/C (second compound 10 µM, first compound 3.16 µM): 72.5%
- viability, T/C (second compound 10 µM, first compound 10 µM): 60%
